Experimental data taken from US20160312261A1, “ENZYMATIC PRODUCTION OF CYTOSINIC NUCLEOSIDE ANALOGUES” (PLASMIA BIOTECH, S.L., priority 2015, published 2016).

Assay: Thermal stability of Capecitabine on heating
Format: physicochemical
Conditions: heating at 90° C. during 10 hours at neutral pH
Experimental: The one step process for the preparation of Capecitabine disclosed in WO 2011/104540 suffers from important loses of the final product. Capecitabine suffers from thermal instability at high temperatures, and after heating the product at 90° C. during 10 hours at neutral pH, up to 40% of the product is lost. On the contrary, the enzymatic process of the invention runs at milder conditions, using water as solvent and furnishing yields higher than 70%.

## CCCCCOC(=O)Nc1nc(=O)n([C@@H]2O[C@H](C)[C@@H](O)[C@H]2O)cc1F [Capecitabine, N^4-pentyloxycarbonyl-5′-deoxy-5-fluorocytidine]
  product lost after heating (thermal instability): up to 40%
